pIC50: −log10 of the molar value.
Legend:
[1] = test system: TNFα production in human monocytic cell line THP-1; assay: Functional assay: inhibition of LPS-induced TNFα production in THP-1 cells; format: cell-based; details: LPS 10 μg/ml, 5 h at 37° C., TNFα ELISA
[2] = biological target: T1, human p38alfa (SAPKa) enzyme (Homo sapiens, UniProt Q16539); assay: p38alpha enzymatic inhibition assay (FRET, ATF2 phosphorylation); format: biochemical; details: 1 h pre-incubation; biotinylated ATF2 0.62 μM, ATP 60 μM; 1 h at 25° C.; read-out: p38α IC50
T1 construct: purchased University of Dundee
T1 sequence (Q16539 whole entry): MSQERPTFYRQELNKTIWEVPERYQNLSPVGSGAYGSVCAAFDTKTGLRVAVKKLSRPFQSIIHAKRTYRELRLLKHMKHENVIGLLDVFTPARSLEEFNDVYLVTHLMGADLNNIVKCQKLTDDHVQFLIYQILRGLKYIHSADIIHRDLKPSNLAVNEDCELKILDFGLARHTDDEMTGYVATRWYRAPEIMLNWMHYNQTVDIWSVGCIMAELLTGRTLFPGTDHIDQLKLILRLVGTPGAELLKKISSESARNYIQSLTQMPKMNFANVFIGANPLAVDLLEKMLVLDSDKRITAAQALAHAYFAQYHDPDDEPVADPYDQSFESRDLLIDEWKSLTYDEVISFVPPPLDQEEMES

Structure (SMILES) | pIC50 [1] | pIC50 [2]
CC(C)(C)N1CCC(c2cc(-c3ccccc3Cl)c3cc[n+]([O-])c(-c4c(Cl)cccc4Cl)c3n2)CC1 [Example 59, 2-(1-Tert-butylpiperidin-4-yl)-4-(2-chlorophenyl)-8-(2,6-dichlorophenyl)-1,7-naphthyridine 7-oxide] | 10.00 | 9.39
[O-][n+]1ccc2c(-c3ccc(F)cc3Cl)cc(C3CCNCC3)nc2c1-c1c(Cl)cccc1Cl [Example 43, 4-(2-Chloro-4-fluorophenyl)-8-(2,6-dichlorophenyl)-2-piperidin-4-yl-1,7-naphthyridine 7-oxide] | 8.54 | 
[O-][n+]1ccc2c(-c3ccccc3Cl)cc(C3CCNCC3)nc2c1-c1c(F)cccc1F [Example 52, 4-(2-Chlorophenyl)-8-(2,6-difluorophenyl)-2-piperidin-4-yl-1,7-naphthyridine 7-oxide] | 8.38 | 
[O-][n+]1ccc2c(-c3ccc(F)cc3F)cc(NC3CCNCC3)nc2c1-c1c(Cl)cccc1Cl [Example 86, 8-(2,6-Dichlorophenyl)-4-(2,4-difluorophenyl)-N-piperidin-4-yl-1,7-naphthyridin-2-amine 7-oxide] | 9.05 | 9.43
[O-][n+]1ccc2c(-c3ccccc3Cl)cc(C3CCNCC3)nc2c1-c1c(Cl)cccc1Cl [Example 53, 4-(2-Chlorophenyl)-8-(2,6-dichlorophenyl)-2-piperidin-4-yl-1,7-naphthyridine 7-oxide] | 9.28 | 9.47
CC(C)(C)N1CCC(c2cc(-c3ccc(F)cc3F)c3cc[n+]([O-])c(-c4c(Cl)cccc4Cl)c3n2)CC1 [Example 36, 2-(1-Tert-butylpiperidin-4-yl)-8-(2,6-dichlorophenyl)-4-(2,4-difluorophenyl)-1,7-naphthyridine 7-oxide] | 8.80 | 8.92
CC(C)(C)N1CCC(c2cc(-c3ccc(F)cc3F)c3cc[n+]([O-])c(-c4c(F)cccc4F)c3n2)CC1 [Example 35, 2-(1-Tert-butylpiperidin-4-yl)-4-(2,4-difluorophenyl)-8-(2,6-difluorophenyl)-1,7-naphthyridine 7-oxide] | 8.47 | 8.55
[O-][n+]1ccc2c(-c3ccc(F)cc3F)cc(OC3CCNCC3)nc2c1-c1c(Cl)cccc1Cl [Example 95, 8-(2,6-Dichlorophenyl)-4-(2,4-difluorophenyl)-2-(piperidin-4-yloxy)-1,7-naphthyridine 7-oxide] | 9.70 | 9.04
[O-][n+]1ccc2c(-c3ccc(F)cc3F)cc(OC3CCNCC3)nc2c1-c1c(F)cccc1F [Example 96, 4-(2,4-Difluorophenyl)-8-(2,6-difluorophenyl)-2-(piperidin-4-yloxy)-1,7-naphthyridine 7-oxide] | 8.49 | 9.66
[O-][n+]1ccc2c(-c3ccc(F)cc3Cl)ccnc2c1-c1c(F)cccc1F [Example 39, 4-(2-Chloro-4-fluorophenyl)-8-(2,6-difluorophenyl)-1,7-naphthyridine 7-oxide] | 7.20 | 7.06
[O-][n+]1ccc2c(-c3ccc(F)cc3F)cc(C3CCNCC3)nc2c1-c1c(F)cccc1F [Example 29, 4-(2,4-Difluorophenyl)-8-(2,6-difluorophenyl)-2-piperidin-4-yl-1,7-naphthyridine 7-oxide] | 8.61 | 9.05
[O-][n+]1ccc2c(-c3ccc(F)cc3F)cc(N3CCNCC3)nc2c1-c1c(F)cccc1F [Example 91, 4-(2,4-Difluorophenyl)-8-(2,6-difluorophenyl)-2-piperazin-1-yl-1,7-naphthyridine 7-oxide] | 8.39 | 
CC(C)(C)N1CCC(c2cc(-c3ccc(F)cc3Cl)c3cc[n+]([O-])c(-c4c(Cl)cccc4Cl)c3n2)CC1 [Example 49, 2-(1-Tert-butylpiperidin-4-yl)-4-(2-chloro-4-fluorophenyl)-8-(2,6-dichlorophenyl)-1,7-naphthyridine 7-oxide] | 9.34 | 
[O-][n+]1ccc2c(-c3ccc(F)cc3Cl)ccnc2c1-c1c(Cl)cccc1Cl [Example 40, 4-(2-Chloro-4-fluorophenyl)-8-(2,6-dichlorophenyl)-1,7-naphthyridine 7-oxide] | 7.36 | 
[O-][n+]1ccc2c(-c3ccc(F)cc3F)cc(N3CCNCC3)nc2c1-c1c(Cl)cccc1Cl [Example 90, 8-(2,6-Dichlorophenyl)-4-(2,4-difluorophenyl)-2-piperazin-1-yl-1,7-naphthyridine 7-oxide] | 9.10 | 8.96
CC(C)(C)N1CCC(c2cc(-c3ccc(F)cc3Cl)c3cc[n+]([O-])c(-c4c(F)cccc4F)c3n2)CC1 [Example 48, 2-(1-Tert-butylpiperidin-4-yl)-4-(2-chloro-4-fluorophenyl)-8-(2,6-difluorophenyl)-1,7-naphthyridine 7-oxide] | 8.52 | 8.80
[O-][n+]1ccc2c(-c3ccc(F)cc3F)ccnc2c1-c1c(F)cccc1F [Example 19, 4-(2,4-Difluorophenyl)-8-(2,6-difluorophenyl)-1,7-naphthyridine 7-oxide] | 6.65 | 
